Biological target: T1, VPS34 (Homo sapiens, UniProt Q8NEB9)
T1 construct: GST (N); host or cells: SF9 insect cells (baculovirus)
Assay: Human VPS34 enzyme assay (Adapta TR-FRET)
Assay type: biochemical
Conditions: for inhibition at 1.11 µM: 1 h, at a 1.11 μM concentration, read-out: VPS34 Percent Inhibition
Procedure: VPS34 (accession number GB:BCO33004) was cloned into pDEST20-Thombin as N-terminal GST tagged fusion proteins using the Gateway system (Invitrogen, catalog#11804-013). The sequences were verified before recombinant protein expression using the Baculovirus Expression System with Gateway® Technology.
For expression VPS34 was infected at 1MOI in SF9 cells and harvested 72 hours post infection.
For purification, VPS34 is purified by Glutathione Sepharose 4 Fast Flow (GE Healthcare #17-5132-03) followed by HiTrap Q (GE Healthcare #17-1153-01).
Human VPS34 Enzyme Assay Method
100 nL compounds in DMSO are added to wells of a 384 well microtitre plate (Greiner 780076). At room temperature: 5 ul VPS34 reaction buffer (Invitrogen Assay Buffer Q (diluted 1 in 5 with nanopure water) plus 2 mM DTT and 2 mM MnCl2) containing ATP (20 uM, Promega) and 200 uM PI-PS substrate (Invitrogen PV5122) is added followed immediately by 5 ul VPS34 reaction buffer (as above) containing VPS34 (5 nM, Millennium Protein Sciences Group) and the mixture is incubated with shaking at room temperature for 1 hour. Then 5 ul VPS34 stop-detect mix (as per Invitrogen Adapta Assay kit (PV5009) instructions (contains kinase quench buffer, TR-FRET buffer, Adapta Eu anti-ADP antibody and Alexa Fluor 647 ADP tracer)) is added to quench the reaction. The plates are then incubated for 30 minutes at room temperature with shaking and then read on a BMG PheraStar Plus reader.
For the assay methods described above, test compound percent inhibition, at various concentrations, is calculated relative to control (DMSO and EDTA) treated samples. Compound concentration versus percent inhibition curves are fitted to generate IC50 values. One skilled in the art will appreciate that the values generated either as percentage inhibition at a single concentration or IC50 values are subject to experimental variation.

T1 sequence (Q8NEB9 whole entry): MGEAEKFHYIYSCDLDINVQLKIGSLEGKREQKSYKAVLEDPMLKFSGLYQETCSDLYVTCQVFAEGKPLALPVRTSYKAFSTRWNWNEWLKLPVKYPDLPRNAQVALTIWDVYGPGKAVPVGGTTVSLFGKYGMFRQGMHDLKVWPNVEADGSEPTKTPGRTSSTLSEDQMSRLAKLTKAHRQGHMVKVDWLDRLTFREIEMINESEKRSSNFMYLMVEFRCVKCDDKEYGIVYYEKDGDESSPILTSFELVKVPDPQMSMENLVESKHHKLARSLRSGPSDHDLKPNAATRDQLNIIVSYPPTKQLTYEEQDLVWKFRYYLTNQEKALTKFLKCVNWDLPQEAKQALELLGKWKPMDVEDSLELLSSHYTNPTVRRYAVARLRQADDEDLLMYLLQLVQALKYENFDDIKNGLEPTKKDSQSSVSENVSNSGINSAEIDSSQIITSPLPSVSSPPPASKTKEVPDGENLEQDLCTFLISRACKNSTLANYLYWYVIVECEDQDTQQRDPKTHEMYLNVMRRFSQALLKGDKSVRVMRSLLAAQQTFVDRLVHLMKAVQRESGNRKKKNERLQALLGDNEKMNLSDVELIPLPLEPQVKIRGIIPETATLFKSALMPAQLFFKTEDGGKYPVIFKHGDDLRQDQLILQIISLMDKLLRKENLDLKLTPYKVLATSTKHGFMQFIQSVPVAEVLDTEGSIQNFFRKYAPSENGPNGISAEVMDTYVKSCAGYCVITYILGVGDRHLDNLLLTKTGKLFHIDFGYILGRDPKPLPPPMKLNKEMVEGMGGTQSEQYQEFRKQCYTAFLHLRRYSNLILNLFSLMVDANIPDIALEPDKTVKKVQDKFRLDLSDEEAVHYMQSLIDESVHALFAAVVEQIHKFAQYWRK

`Cc1cnc(NC(=O)C2CC2)cc1-n1cc(-c2nc[nH]n2)c(-c2cc(CN3CCCC3)ccc2Cl)c1` [I-84, N-(4-{3-[2-chloro-5-(pyrrolidin-1-ylmethyl)phenyl]-4-(1H-1,2,4-triazol-3-yl)-1H-pyrrol-1-yl}-5-methylpyridin-2-yl)cyclopropanecarboxamide] showed an IC50 of less than 50 nM and an inhibition at 1.11 µM greater than 99%.
For `O=C(Nc1cc(-n2cc(-c3nc[nH]n3)c(-c3ccccc3Cl)n2)ccn1)C1CC1` [I-23, N-{4-[3-(2-chlorophenyl)-4-(1H-1,2,4-triazol-3-yl)-1H-pyrazol-1-yl]pyridin-2-yl}cyclopropanecarboxamide], the IC50 was less than 50 nM and the inhibition at 1.11 µM was greater than 99%.
For `CC(=O)Nc1cc(-n2cc(-c3ncn[nH]3)c(-c3ccnc(Cl)c3)n2)c(C)cn1` [I-106, N-{4-[3-(2-chloropyridin-4-yl)-4-(1H-1,2,4-triazol-5-yl)-1H-pyrazol-1-yl]-5-methylpyridin-2-yl}acetamide], the IC50 was 150 to 1000 nM and the inhibition at 1.11 µM was 54%.
For `CC(=O)Nc1cc(-n2cc(-c3nc[nH]n3)c(-c3ccccc3Cl)n2)c(Br)cn1` [I-18, N-{5-bromo-4-[3-(2-chlorophenyl)-4-(1H-1,2,4-triazol-3-yl)-1H-pyrazol-1-yl]pyridin-2-yl}acetamide], the IC50 was 150 to 1000 nM and the inhibition at 1.11 µM was 89%.
Compound `CC(=O)Nc1cc(-n2cc(-c3nnc[nH]3)c(I)n2)c(C)cn1` [I-62, N-{4-[3-iodo-4-(1H-1,2,4-triazol-3-yl)-1H-pyrazol-1-yl]-5-methylpyridin-2-yl}acetamide] has an IC50 of 150 to 1000 nM and an inhibition at 1.11 µM of 59%.
For `CC(=O)Nc1cc(-n2cc(-c3nc[nH]n3)c(-c3ccccc3C)n2)c(C)cn1` [I-69, N-{5-methyl-4-[3-(2-methylphenyl)-4-(1H-1,2,4-triazol-3-yl)-1H-pyrazol-1-yl]pyridin-2-yl}acetamide], the inhibition at 1.11 µM was greater than 99%.
`Cc1cnc(NC(=O)OC2CCCCC2)cc1-n1cc(C(N)=O)c(-c2ccccc2Cl)c1` [I-72, cyclohexyl {4-[3-carbamoyl-4-(2-chlorophenyl)-1H-pyrrol-1-yl]-5-methylpyridin-2-yl}carbamate] was tested, and the IC50 was 150 to 1000 nM and the inhibition at 1.11 µM was 71%.
Work on `CC(=O)Nc1cc(-n2cc(C(N)=O)c(-c3ccccc3S(C)(=O)=O)c2)ccn1` [I-47, 1-(2-acetamidopyridin-4-yl)-4-[2-(methylsulfonyl)phenyl]-1H-pyrrole-3-carboxamide] yielded an IC50 of 150 to 1000 nM and an inhibition at 1.11 µM of 64%.
Work on `CCOc1ccc(-c2nn(-c3cc(NC(C)=O)ncc3C)cc2-c2nc[nH]n2)c(Cl)c1` [I-68, N-{4-[3-(2-chloro-4-ethoxyphenyl)-4-(1H-1,2,4-triazol-3-yl)-1H-pyrazol-1-yl]-5-methylpyridin-2-yl}acetamide] yielded an inhibition at 1.11 µM greater than 99%.
Work on `COC(=O)Nc1cc(-n2cc(-c3nc[nH]n3)c(-c3ccccc3Cl)n2)c(C)cn1` [I-45, methyl {4-[3-(2-chlorophenyl)-4-(4H-1,2,4-triazol-3-yl)-1H-pyrazol-1-yl]-5-methylpyridin-2-yl}carbamate] yielded an inhibition at 1.11 µM greater than 99%.
`Cc1cnc(NC(=O)OCCF)cc1-n1cc(C(N)=O)c(-c2ccccc2Cl)c1` [I-83, 2-fluoroethyl {4-[3-carbamoyl-4-(2-chlorophenyl)-1H-pyrrol-1-yl]-5-methylpyridin-2-yl}carbamate] was tested, and the inhibition at 1.11 µM was greater than 99%.
`CC(=O)Nc1cc(-n2cc(-c3ncc[nH]3)c(-c3ccccc3Cl)n2)c(C)cn1` [I-27, N-{4-[3-(2-chlorophenyl)-4-(1H-imidazol-2-yl)-1H-pyrazol-1-yl]-5-methylpyridin-2-yl}acetamide] gave an IC50 of less than 50 nM and an inhibition at 1.11 µM greater than 99%.
With `CC(=O)Nc1cc(-n2cc(CO)c(-c3ccccc3Cl)c2)c(C)cn1` [I-85, N-{4-[3-(2-chlorophenyl)-4-(hydroxymethyl)-1H-pyrrol-1-yl]-5-methylpyridin-2-yl}acetamide] the IC50 was 150 to 1000 nM and the inhibition at 1.11 µM was 93%.
In the case of `CCN(CC)Cc1ccc(Cl)c(-c2nn(-c3cc(NC(C)=O)ncc3C)cc2-c2nc[nH]n2)c1` [I-58, N-{4-[3-{2-chloro-5-[(diethylamino)methyl]phenyl}-4-(1H-1,2,4-triazol-3-yl)-1H-pyrazol-1-yl]-5-methylpyridin-2-yl}acetamide], the inhibition at 1.11 µM is reported as greater than 99%.
For `CC(=O)Nc1cc(-n2cc(-c3nc[nH]n3)c(-c3ccccc3Cl)n2)c(C)cn1` [I-5, N-{4-[3-(2-chlorophenyl)-4-(1H-1,2,4-triazol-3-yl)-1H-pyrazol-1-yl]-5-methylpyridin-2-yl}acetamide], the IC50 was less than 50 nM and the inhibition at 1.11 µM was greater than 99%.
Work on `CC(=O)Nc1cc(-n2cc(-c3nc[nH]n3)c(-c3ccc(F)cc3Cl)n2)c(C)cn1` [I-65, N-{4-[3-(2-chloro-4-fluorophenyl)-4-(1H-1,2,4-triazol-3-yl)-1H-pyrazol-1-yl]-5-methylpyridin-2-yl}acetamide] yielded an inhibition at 1.11 µM greater than 99%.
With `CC(=O)Nc1cc(-n2cc(-c3cccc(N)n3)c(-c3ccccc3Cl)n2)c(C)cn1` [I-107, N-{4-[4-(6-aminopyridin-2-yl)-3-(2-chlorophenyl)-1H-pyrazol-1-yl]-5-methylpyridin-2-yl}acetamide] the IC50 was 150 to 1000 nM and the inhibition at 1.11 µM was 54%.
In the case of `Cc1cnc(NC(=O)C2CC2)cc1-n1cc(-c2ncc[nH]2)c(-c2ccccc2Cl)c1` [I-82, N-{4-[3-(2-chlorophenyl)-4-(1H-imidazol-2-yl)-1H-pyrrol-1-yl]-5-methylpyridin-2-yl}cyclopropanecarboxamide], the inhibition at 1.11 µM is reported as greater than 99%.
`Cc1cnc(NC(=O)OCCF)cc1-n1cc(-c2nc[nH]n2)c(-c2ccccc2Cl)c1` [I-81, 2-fluoroethyl {4-[3-(2-chlorophenyl)-4-(1H-1,2,4-triazol-3-yl)-1H-pyrrol-1-yl]-5-methylpyridin-2-yl}carbamate] gave an IC50 of less than 50 nM and an inhibition at 1.11 µM greater than 99%.
In the case of `COC(=O)Nc1cc(-n2cc(-c3ncc[nH]3)c(-c3ccccc3Cl)c2)c(C)cn1` [I-109, methyl {4-[3-(2-chlorophenyl)-4-(1H-imidazol-2-yl)-1H-pyrrol-1-yl]-5-methylpyridin-2-yl}carbamate], the IC50 is reported as less than 50 nM and the inhibition at 1.11 µM is reported as 97%.

— patent US20130165464A1, “HETEROARYLS AND USES THEREOF” (MILLENNIUM PHARMACEUTICALS, INC., priority 2011, published 2013)
